The test system of one experiment is NAFLD. Put plainly: Mouse NAFLD model induced by 60% high-fat feed, oil red staining and immunohistochemistry of liver (Example 6). The settings on record: NAFLD mice, 30 mg/kg intraperitoneally once every 2 days. The class given is in vivo. As to the method:
Experimental methods: The "Western diet" (WD) was simulated with 60% high-fat feed, and the NAFLD model could be established within 12 weeks. After the establishment of the animal model, the mice were intraperitoneally injected once every 2 days at a dose of 30 mg/kg. Liver tissues of the mice were collected on days 12, 15, and 21 of administration, and oil red staining was performed on the liver tissues of each group.
(§1) Experimental grouping: The experimental groups were injected with reparixin, and the control group was injected with PBS.
(A) After NAFLD was established, raparixin was intraperitoneally injected once every two days; macroscopic views of representative liver tissues and oil red staining of liver sections in each group are shown, and the scale represents 50 µm. (B) Oil red staining positive area rate of NAFLD and 12-day treatment groups, n = 4. (C) Oil red staining positive area rate of NAFLD and 15-day treatment groups, n = 4. Statistical test: mean + SD, Student's t-test, * p < 0.05.
A: representative gross views of livers of mice in the NAFLD treatment group and untreated group, and oil red O staining and immunohistochemical staining on liver sections of the two groups of mice, with the scale bar being 100 µm; B-C: comparison of mean immunohistochemical staining densities of IL6 (B) and CXCR2 (C) in livers of NAFLD mice treated with reparixin for 21 days (mean ± SD, Student's t test).

The conditions of experiment [1]: 5 mg/kg subcutaneously once daily for 3 consecutive weeks; cited from earlier work.
The next experiment concerns Luciferase-MC38 cells. Put plainly: Mouse CRC liver metastasis model by intra-splenic injection, reparixin alone (Example 4). Type of experiment: in vivo, C57BL/6 mice. Conditions: for liver weight / liver/body weight ratio: reparixin 30 mg/kg intraperitoneally every other day, day 12. The method, then:
Experimental methods: Luciferase-MC38 cells were intrasplenically injected into C57BL/6 mice complicated by NAFLD or uncomplicated by NAFLD. Subsequently, reparixin (MCE, 30 mg/kg) or PBS was intraperitoneally injected every other day. On day 6 after tumor inoculation, the extent of liver metastasis was observed by imaging using an In vivo Imaging System (IVIS, PerkinElmer, Hopkinton, MA, USA). On day 12 after tumor inoculation, the mice were sacrificed under isoflurane anesthesia and soaked in alcohol for 30 min. Livers from each group of mice were prepared into single-cell suspensions, which were subjected to blocking, staining, incubation, and subsequent detection on the machine.
as §1
(A) Experimental treatment protocol: After Luciferase-MC38 cells were inoculated, PBS or reparixin was injected on days 3, 5, 7, 9, and 11, respectively, and the mice were sacrificed on day 12. (B) In vivo bioluminescence imaging of each group (CRLM group, CRLM + reparixin group, NAFLD + CRLM group, NAFLD + CRLM + reparixin group) on day 6 after tumor inoculation. (C) Representative gross anatomical views of livers of each group of mice (samples collected on day 12 after treatment); yellow arrows represent tumors. (D) Liver weight of each group of mice; n = 5-6.

The test system of a further experiment is IL-1β. The settings on record: after MCAo in mice; cited from earlier work.
In the next experiment the test system is gastric cancer. Conditions: treatment of gastric cancer; cited from earlier work.

We go through one compound from EP4681707A1, “METHOD FOR TREATING DISEASES BY USING REPARIXIN ALONE OR IN COMBINATION WITH ANTI-PD-1 ANTIBODY” (Shandong Cancer Hospital Affiliated to Shandong First …, priority 2023, dated 2024).

Take `CC(C)Cc1ccc([C@@H](C)C(=O)NS(C)(=O)=O)cc1` [reparixin]: in the experiment with NAFLD (IL6 and CXCR2 staining after 21 days), the inflammation entry was “reduce inflammation”. Moreover, in the experiment on NAFLD (days 12, 15, 21), the hepatocellular steatosis result is “significantly ameliorated” and the lipid vacuoles result was “reduced”. Further, in experiment [1], the blood flow result is recorded as “increased” and the systolic blood pressure entry was “effectively reduced”. Moreover, in the experiment with Luciferase-MC38 cells (CRLM animal model), the liver weight entry was “decreased significantly” and the liver/body weight ratio entry was “decreased significantly”. Also, in the experiment on Luciferase-MC38 cells (NAFLD + CRLM animal model), the liver weight entry is reported as “decreased significantly” and the liver/body weight ratio result was “decreased significantly”. Also, the liver metastasis burden result with Luciferase-MC38 cells (especially in mice complicated by NAFLD, 30 mg/kg intraperitoneally) is “can reduce the liver metastasis burden”. Also, in the experiment on IL-1β, the “level of IL-1β in the brain” value is recorded as “reduce”. Further, in the experiment on gastric cancer, the “overall survival (OS) rate” value is listed as “prolongs” and the “programmed death ligand 1 macrophages” value is listed as “reduction”.
